Patent US8975417B2, “Pyrazolopyrrolidine derivatives and their use in the treatment of disease” (Novartis AG, priority 2013, dated 2015)

Tests used:
K-562 cells = assay: Cell growth inhibition assay (CellTiter-Glo), K-562; format: cell-based, human; details: Homo sapiens, K562, read-out: K-562 TGI
Summary of the method: (§1)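 Compounds tested as 3-fold dilution series starting at 10 μM (DMSO 0.1% final); viability read by cellular ATP (CTG luminescence) at 37° C. Signal corrected for no-cell background and a day-0 plate, scaled −100% to 100%; four-parameter fitting gives IC50 and TGI.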

MV-4-11 cells = assay: Cell growth inhibition assay (CellTiter-Glo), MV-4-11; format: cell-based; details: Homo sapiens, MV4-11, read-out: MV-4-11 TGI
Summary of the method: as §1

His-Brd2(60-472) = His-Brd2(60-472) (Homo sapiens (Human), UniProt P25440); assay: TR-FRET in-vitro binding assay for BRD2; details: biochemical
Chain of His-Brd2(60-472) (P25440 60-472): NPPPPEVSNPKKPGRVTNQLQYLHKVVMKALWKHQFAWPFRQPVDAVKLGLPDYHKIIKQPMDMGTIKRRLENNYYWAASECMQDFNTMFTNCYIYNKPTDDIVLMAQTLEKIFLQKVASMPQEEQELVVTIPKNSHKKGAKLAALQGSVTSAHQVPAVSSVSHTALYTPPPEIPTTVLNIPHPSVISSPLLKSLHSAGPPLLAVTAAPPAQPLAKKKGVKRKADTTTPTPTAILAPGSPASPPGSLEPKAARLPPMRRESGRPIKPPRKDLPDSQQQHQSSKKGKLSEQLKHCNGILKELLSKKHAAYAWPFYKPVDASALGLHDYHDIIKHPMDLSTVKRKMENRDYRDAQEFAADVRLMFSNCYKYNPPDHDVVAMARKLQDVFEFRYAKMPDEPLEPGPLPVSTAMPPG
Summary of the method: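 Bromodomain protein (45 nM in its addition solution) and tetra-acetylated histone H4 peptide (AcK5/8/12/16; 60 nM in its addition solution) were incubated with compounds for 35 min at 30 °C in 50 mM HEPES pH 7.5, 50 mM NaCl, 0.005% Tween20, 0.1% BSA. Eu-anti-His6 plus streptavidin-allophycocyanin detection followed, with TR-FRET read-out.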

[1] = target: His-CREBBP (1081-1197) bromodomain (Homo sapiens (Human), UniProt Q92793); assay: AlphaScreen in-vitro binding assay for CREBBP; details: biochemical
Chain of His-CREBBP (1081-1197) bromodomain (Q92793 1081-1197): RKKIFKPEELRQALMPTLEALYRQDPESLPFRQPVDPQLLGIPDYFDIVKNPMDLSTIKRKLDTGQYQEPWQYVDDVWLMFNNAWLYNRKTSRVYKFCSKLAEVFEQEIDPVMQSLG
Summary of the method: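 Ni-chelate acceptor and streptavidin donor beads (45 µg/mL each, in 50 mM HEPES pH 7.5, 150 mM NaCl, 0.02% BSA) were then added for 60 min at room temperature. IC50 came from 8-point non-linear regression.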

THP-1 cells = assay: Cell growth inhibition assay (CellTiter-Glo), THP-1; format: cell-based; details: Homo sapiens, read-out: THP-1 TGI
Summary of the method: as §1

| Compound | IC (total growth inhibition) (K-562 cells) | IC (total growth inhibition) (MV-4-11 cells) | IC50 (His-Brd2(60-472)) | IC50 [1] | IC (total growth inhibition) (THP-1 cells) |
| --- | --- | --- | --- | --- | --- |
| Cc1nn(-c2ccnn2C)c2c1[C@@H](c1ccc(Cl)cc1)N(c1cc(C)c3nnc(C)n3c1)C2=O [Example 125, (R)-4-(4-chlorophenyl)-5-(3,8-dimethyl-[1,2,4]triazolo[4,3-a]pyridin-6-yl)-3-methyl-1-(1-methyl-1H-pyrazol-5-yl)-4,5-dihydropyrrolo[3,4-c]pyrazol-6(1H)-one] | > 10 µM | 0.0399 µM | 32 nM | 21 µM | 0.0473 µM |
| COc1ncccc1-n1nc(C)c2c1C(=O)N(c1cc(C)c(=O)n(C)c1)[C@H]2c1ccc(Cl)cc1 [Example 127, (S)-4-(4-chlorophenyl)-5-(1,5-dimethyl-6-oxo-1,6-dihydropyridin-3-yl)-1-(2-methoxypyridin-3-yl)-3-methyl-4,5-dihydropyrrolo[3,4-c]pyrazol-6(1H)-one] | > 10 µM | 4.49 µM | 4400 nM | > 37 µM | > 10 µM |
| COc1ncccc1-n1nc(C)c2c1C(=O)N(c1cc(C)c(=O)n(C)c1)[C@@H]2c1ccc(Cl)cc1 [Example 128, (R)-4-(4-chlorophenyl)-5-(1,5-dimethyl-6-oxo-1,6-dihydropyridin-3-yl)-1-(2-methoxypyridin-3-yl)-3-methyl-4,5-dihydropyrrolo[3,4-c]pyrazol-6(1H)-one] | > 10 µM | 0.0734 µM | 30 nM | 3.7 µM | 0.107 µM |
| Cc1cc(N2C(=O)c3c(c(CO)nn3C3CC3)C2c2ccc(Cl)cc2)cn2c(C)nnc12 (stereo not shown) [Example 131, 4-(4-chlorophenyl)-1-cyclopropyl-5-(3,8-dimethyl-[1,2,4]triazolo[4,3-a]pyridin-6-yl)-3-(hydroxymethyl)-4,5-dihydropyrrolo[3,4-c]pyrazol-6(1H)-one] | > 10 µM | 0.0405 µM | 46 nM | 30 µM | 0.119 µM |
| Cc1nn(C2COC2)c2c1C(c1ccc(Cl)cc1)N(c1cc(C)c(=O)n(C)c1)C2=O (stereo not shown) [Example 135, 4-(4-chlorophenyl)-5-(1,5-dimethyl-6-oxo-1,6-dihydropyridin-3-yl)-3-methyl-1-(oxetan-3-yl)-4,5-dihydropyrrolo[3,4-c]pyrazol-6(1H)-one] | > 10 µM | 0.126 µM | 150 nM | > 37 µM | 0.2 µM |
| Cc1cc(N2C(=O)c3nn(C4COC4)c(C)c3C2c2ccc(Cl)cc2)cn2c(C)nnc12 (stereo not shown) [Example 136, 4-(4-chlorophenyl)-5-(3,8-dimethyl-[1,2,4]triazolo[4,3-a]pyridin-6-yl)-3-methyl-2-(oxetan-3-yl)-4,5-dihydropyrrolo[3,4-c]pyrazol-6(2H)-one] | > 10 µM | 0.041 µM | 140 nM | 4.3 µM | 0.186 µM |
| Cc1nn(C2COC2)c2c1C(c1ccc(Cl)cc1)N(c1cc(C)c3nnc(C)n3c1)C2=O (stereo not shown) [Example 137, 4-(4-chlorophenyl)-5-(3,8-dimethyl-[1,2,4]triazolo[4,3-a]pyridin-6-yl)-3-methyl-1-(oxetan-3-yl)-4,5-dihydropyrrolo[3,4-c]pyrazol-6(1H)-one] | > 10 µM | 0.0421 µM | 92 nM | > 37 µM | 0.116 µM |
| Cc1nn(C2CN(C)C2)c2c1C(c1ccc(Cl)cc1)N(c1cc(C)c(=O)n(C)c1)C2=O (stereo not shown) [Example 140, 4-(4-chlorophenyl)-5-(1,5-dimethyl-6-oxo-1,6-dihydropyridin-3-yl)-3-methyl-1-(1-methylazetidin-3-yl)-4,5-dihydropyrrolo[3,4-c]pyrazol-6(1H)-one] | > 10 µM | 0.154 µM | 420 nM | 15 µM | 0.925 µM |
